Our source for the MIC, IC50 and Solubility values is patent publication US5874592A, “Physiologically active substance EI-2128-1” (Kyowa Hakko Kogyo Co., Ltd., priority 1996, dated 1999).

Series [1] deals with Enterococcus hirae ATCC 10541. Kind of series: Antibacterial activity, agar dilution method. The format is cell-based. To be noted: ATCC10541; Enterococcus hirae ATCC 10541, agar dilution, pH 7.0. (Agar dilution tests growth on a series of plates holding different concentrations.)
Series [2] relates to Staphylococcus aureus subsp. aureus ATCC 6538P. Kind of series: Antibacterial activity, agar dilution method. The format is cell-based. As to conditions: ATCC6538P, pH 7.0.
Series [3] relates to production of IL-1β by human monocyte-derived THP-1 cells. The experiment in a line: Inhibitory activity against the production of IL-1β by LPS-stimulated THP-1 cells (ELISA). As to conditions: LPS 25 μg/ml, 4 hours, PMA-differentiated THP-1 cells, read-out: 50% inhibitory concentration against the IL-1 production by THP-1 cells stimulated by LPS. The format is cell-based. Here is the method:
The inhibitory activity of the compound of the present invention, EI-2128-1, against the production of IL-1β by human monocyte-derived THP-1 cells (ATCC No. TIB 202) was examined in the following manner. The amount of IL-1β was determined by the ELISA method.
THP-1 cells were suspended in RPMI1640 medium (Nissui Pharmaceutical Co., Ltd.) containing 10% inactivated fetal calf serum at a concentration of 1×10^5 cells/ml. The cell suspension was put into wells of a 24-well plate in an amount of 1 ml/well. Phorbol 12-myristate 13-acetate (PMA, final concentration: 30 nM) was added to the wells, followed by incubation in a 5% CO2 -incubator at 37° C. for 65 hours to differentiate the cells into macrophage.
Then, the plate was gently washed with serum-free RPMI1640 medium to remove the cells which were not adhered to the wells, and the residue was cultured for 4 hours in serum-free RPMI1640 medium (1 ml/well) containing lipopolysaccharide (LPS, final concentration: 25 μg/ml) and the test compound (final concentration: 0.05-50 μg/ml).
After the completion of culturing, the amount of IL-1β released into the culture supernatant was determined by using an IL-1β determination kit (Amersham Corp.).
The IL-1 production inhibition rate was calculated according to the following equation to obtain IC50 (50% inhibitory concentration).
IL-1 production inhibition rate (%)=(A-B)/(A-C)×100 […]
(In general: An ELISA detects its analyte on a solid surface through an enzyme-linked reagent.)

Series [4] concerns Proteus vulgaris ATCC 6897. The experiment in a line: Antibacterial activity, agar dilution method. The format is cell-based. To be noted: ATCC6897; Proteus vulgaris ATCC 6897, agar dilution, pH 7.0.
For series [5], the system named is Klebsiella pneumoniae subsp. pneumoniae ATCC 10031. Kind of series: Antibacterial activity, agar dilution method. The format is cell-based. As to conditions: ATCC10031; Klebsiella pneumoniae subsp. pneumoniae ATCC 10031, agar dilution, pH 7.0.
In series [6] the test system is Bacillus subtilis No. 10707. Kind of series: Antibacterial activity, agar dilution method. The format is cell-based. As to conditions: Bacillus subtilis No. 10707, agar dilution, pH 7.0.
The test system of series [7] is Candida albicans ATCC 10231. The experiment in a line: Antibacterial activity, agar dilution method. The format is cell-based. To be noted: ATCC10231; Candida albicans ATCC 10231, agar dilution, pH 7.0.
A short description of the next series: Solubility. To be noted: methanol, acetonitrile, and chloroform. The format is physicochemical.

Molecules are shown by their SMILES. In brackets after ≈: the same amount, converted by molar mass.

As usually defined, the MIC is the least concentration at which growth counts as inhibited. The low end stands for greater potency, the high end for weaker potency. With `CCCCCCC(C)CC(C)/C=C/C(=O)NC1CC2(OC1O)C1OC1C(=O)C1OC12` (centres unmarked) [EI-2128-1], the MIC stood at 0.33 µg/mL (≈ 0.783 µM) in series [1]; 0.33 µg/mL (≈ 0.783 µM) in series [2]; 42 µg/mL (≈ 99.6 µM) in series [4]; 21 µg/mL (≈ 49.8 µM) in series [5]; 0.16 µg/mL (≈ 0.38 µM) in series [6]; 42 µg/mL (≈ 99.6 µM) in series [7]. In series [3], the IC50 is 100 nM. Further, the Solubility entry in “Solubility” is “Readily soluble in methanol, acetonitrile, and chloroform”.
